{"source": "patent US20250222065A1", "about": "“CYCLIC POLYPEPTIDE FOR THE TREATMENT OF PHA TYPE 1B” (priority 2015, published 2025)", "molecules": {"B1": {"name": "AP318, Cyclo(4-aminobutanoic acid-…) (peptide)", "peptide": "GQRETPEGAEAKPWYD", "modifications": "here or on the partner: N-terminal 4-aminobutanoic acid (GABA); cyclic: amide bond between the amino group of N-terminal 4-aminobutanoic acid and the side chain carboxyl group of the C-terminal aspartic acid"}, "B2": {"name": "AP318, Cyclo(4-aminobutanoic acid-GQRETPEGAEAKPWYD) (peptide)", "peptide": "GQRETPEGAEAKPWYD", "modifications": "N-terminal 4-aminobutanoic acid (GABA); cyclic: amide bond between the amino group of N-terminal 4-aminobutanoic acid and the side chain carboxyl group of the C-terminal aspartic acid"}}, "key": {"[1]": {"tested_on": "WT αβγ-hENaC, WT δβγ-hENaC or mutant hENaC", "test": "Amiloride block of whole-cell sodium current in transfected HEK-293 cells", "format": "cell-based, human", "details": "amiloride 10 μM, HEK-293 whole-cell sodium current", "experimental": "Concentration-response curves were plotted, and EC50 values and Hill coefficients were determined using Microcal Origin 7.0. […] Finally, amiloride was added to enable estimation of the peptide-induced increase in amiloride-sensitive Na+ current. […] Amiloride was used at 10 μM for WT αβγ-hENaC, WT δβγ-hENaC or mutant hENaC; these concentrations yielded greater than 95% hENaC inhibition. Only cells with clear amiloride response were included in data analysis."}, "αβγV543fs-hENaC": {"tested_on": "αβγV543fs-hENaC", "test": "Whole cell patch clamp, HEK-293 cells expressing PHA type IB frameshift mutant αβγV543fs-hENaC", "format": "cell-based, human", "details": "HEK-293, peptide concentration 220 nM, mean ± SE, n = 5; no peptide: loss-of-function; Table 2", "experimental": "The ENaC-activating properties of cyclic peptides are tested electrophysiologically in vitro using whole cell and […] patch clamp techniques Hazemi et al, 2010; Tzotzos et al, 2013; Shabbir et al, 2013). A whole call patch clamp assay is used to measure the induced amiloride-sensitive Na+ current, calculate concentration-response curves and thus estimate the potency measured as effective concentration at half maximum response (EC50), for cyclic peptides.\nIn addition, mutant delta ENaC subunits were also constructed by site-directed mutagenesis, containing homologous mutations to those observed in conserved positions in the other three ENaC subunits.\nPoint mutations were introduced into cDNA encoding alpha, beta, gamma and delta ENaC using a commercially available site-directed mutagenesis kit (QuikChange Lightning Site-Directed Mutagenesis Kit; Agilent Technologies). […]\n(§1) Whole cell currents were recorded as previously described (Shabbir et al, 2013).\n(§2) Data represent the mean ±S.E. unless otherwise stated; experiments were performed on three to seven batches of independently transfected cells in the HEK-293 heterologous expression system. Statistical significance between different groups was determined using an unpaired, two-tailed Student's t test using GraphPad Prism version 3.02 (GraphPad Software, San Diego). […]"}, "[2]": {"tested_on": "PHA type IB mutant loss-of-function hENaC", "test": "Whole cell patch clamp, HEK-293 cells expressing PHA type IB mutant hENaCs (overall conclusions)", "format": "cell-based, human", "details": "whole cell electrophysiological assay, versus absence of peptide", "experimental": "In addition, mutant delta ENaC subunits were also constructed by site-directed mutagenesis, containing homologous mutations to those observed in conserved positions in the other three ENaC subunits. […]\nas §1\nConcentration-response curves were plotted, and EC50 values and Hill coefficients were determined using Microcal Origin 7.0. […]\nAfter GOhm-seal (GΩ-seal) formation, and an equilibration period of 5 min, sodium current was recorded at Eh from —80 to +80 mV in 20 mV increments held for 1 min at each Eh.\nas §2"}, "[3]": {"target": "αβγV543fs-hENaC (human), P37088", "test": "cell-based or functional assay"}, "αQ101Kβγ-hENaC": {"target": "αQ101Kβγ-hENaC (human, UniProt P37088 1-669; P51168 1-640; P51170 1-649)", "test": "cell-based or functional assay"}, "αβG37Sγ-hENaC": {"target": "αβG37Sγ-hENaC (human, UniProt P37088 1-669; P51168 1-640; P51170 1-649)", "test": "cell-based or functional assay"}}}
{"molecule": "N=C(N)NC(=O)c1nc(Cl)c(N)nc1N", "note": "[Amiloride, amiloride]", "values": [{"measurement": "hENaC inhibition", "setting": "[1]", "value": "greater than 95%"}]}
{"molecule": "Cyclo(4-aminobutanoic acid-GQRETPEGAEAKPWYD) (not fully specified; cyclized via 4-aminobutanoic acid) [AP318]", "values": [{"measurement": "Inward current measured (amiloride-sensitive current)", "setting": "αβγV543fs-hENaC", "value": "177.7 ± 6.5", "unit": "pA"}, {"measurement": "Amiloride-sensitive sodium ion current through PHA-1B mutants in the presence of peptide", "setting": "[2]", "value": "significantly increased"}]}
{"molecule": "B1", "values": [{"measurement": "Inward amiloride-sensitive current, whole cell patch clamp, HEK-293, peptide concentration 220 nM", "setting": "[3]", "value": 178, "unit": "pA"}]}
{"molecule": "B2", "values": [{"measurement": "Inward amiloride-sensitive current, whole cell patch clamp, HEK-293, peptide concentration 220 nM", "setting": "αQ101Kβγ-hENaC", "value": 177, "unit": "pA"}, {"measurement": "Inward amiloride-sensitive current, whole cell patch clamp, HEK-293, peptide concentration 220 nM", "setting": "αβG37Sγ-hENaC", "value": 192, "unit": "pA"}]}
